Source: patent publication US20220064167A1, “IMIDAZO-PYRAZOLE CARBOXAMIDE DERIVATIVES AS ANTICANCER AGENTS AND THE SYNTHESIS THEREOF” (AVIDIN KFT., priority 2018, published 2022)

Key:
[1] = system: human breast adenocarcinoma cell line, MCF-7; test: resazurin viability assay, 72 h (Table 1); assay type: cell-based; settings: MCF7, 72h incubation, 156 nM-100 μM
Excerpt: (§1) In our experiments three different cell lines were used. Cells were purchased from the American Type Culture Collection (ATCC, Manassas, Va., USA). The human breast adenocarcinoma cell line, MCF-7 cells were maintained in Dulbecco's Modified Eagle Medium/Nutrient Mixture F-12 (DMEM/F12) 10% fetal calf serum (FCS, Gibco) and mouse mammary carcinoma 4T1 and human promyelocytic leukemia, HL-60 cells were maintained in Roswell Park Memorial Institute 1640 medium (RPMI-1640) 10% FCS. Media were supplemented with 2 mM GlutaMAX, and 100 U/mL penicillin, 100 μg/mL streptomycin (Life Technologies, Carlsbad, Calif., USA). Cell cultures were maintained at 37° C. in a humidified incubator in an atmosphere of 5% CO2 (Sanyo, Japan).
(§2) For viability assays cells were seeded in 96 well plates (MCF7 and 4T1: 6000, HL60: 120.000 cells/well) and incubated overnight. Compounds were dissolved in dimethyl sulfoxide (DMSO). Cells were treated with an increasing concentration of compounds having the general formula (I.) (156 nM-100 μM). Cell viability was determined after 72h incubation. Resazurin reagent (Sigma-Aldrich) was dissolved in PBS (pH 7.4) at 0.15 mg/ml concentration, sterile filtered (0.22 μm, Merck Millipore) and aliquoted at −20° C. Resazurin reagent (Sigma-Aldrich) was added at a final concentration of 25 μg/ml. After 2 hours incubation at 37° C. 5% CO2 fluorescence (530 nm excitation/580 nm emission) was recorded on a multimode microplate reader (Cytofluor4000, PerSeptive Biosytems). Viability was calculated with relation to untreated control cells and blank wells containing media without cells. IC50 values (50% inhibiting concentration) were calculated by GraphPad Prism® 5 (La Jolla, Calif., USA).

[2] = system: human promyelocytic leukemia, HL-60 cells; test: resazurin viability assay, 72 h (Table 1); assay type: cell-based; settings: 72h incubation, 156 nM-100 μM
Excerpt: as §1, §2

[3] = system: mouse mammary carcinoma 4T1; test: resazurin viability assay, 72 h (Table 1); assay type: cell-based; settings: 72h incubation, 156 nM-100 μM
Excerpt: as §1, §2

| melting point | IC50 [1] | IC50 [2] | IC50 [3] | SMILES |
| --- | --- | --- | --- | --- |
| 246 to 248 °C | – | – | – | CC(C)(C)Nc1c(-c2ccccc2)[nH]c2c(C(N)=O)cnn12 [Example 1, 3-(Tert-butylamino)-2-phenyl-1H-imidazo[1,2-b]pyrazole-7-carboxamide] |
| 154 to 156 °C | – | – | – | CC(C)(C)CC(C)(C)Nc1c(-c2ccccc2)[nH]c2c(C(N)=O)cnn12 [Example 2, 2-Phenyl-3-((2,4,4-trimethylpentan-2-yl)amino)-1H-imidazo[1,2-b]pyrazole-7-carbox-amide] |
| 209 to 210 °C | – | – | – | COC(=O)CNc1c(-c2ccccc2)[nH]c2c(C(N)=O)cnn12 [Example 3, Methyl 2-((7-carbamoyl-2-phenyl-1H-imidazo[1,2-b]pyrazol-3-yl)amino)acetate] |
| 240 to 241 °C | – | – | – | NC(=O)c1cnn2c(NC3CCCCC3)c(-c3ccccc3)[nH]c12 [Example 4, 3-(Cyclohexylamino)-2-phenyl-1H-imidazo[1,2-b]pyrazole-7-carboxamide] |
| 229 to 231 °C | – | – | – | COc1ccc(Nc2c(-c3ccccc3)[nH]c3c(C(N)=O)cnn23)cc1 [Example 5, 3-((4-Methoxyphenyl)amino)-2-phenyl-1H-imidazo[1,2-b]pyrazole-7-carboxamide] |
| 218 to 219 °C | 17 µM | 12.6 µM | 12.3 µM | Cc1ccc(-c2[nH]c3c(C(N)=O)cnn3c2NC(C)(C)CC(C)(C)C)cc1 [Example 6, 2-(p-Tolyl)-3-((2,4,4-trimethylpentan-2-yl)amino)-1H-imidazo[1,2-b]pyrazole-7-carbox-amide] |
| 124 to 125 °C | 18.6 µM | 19 µM | 25.2 µM | COc1ccc(-c2[nH]c3c(C(N)=O)cnn3c2NC(C)(C)CC(C)(C)C)cc1 [Example 7, 2-(4-Methoxyphenyl)-3-((2,4,4-trimethylpentan-2-yl)amino)-1H-imidazo[1,2-b]pyrazole-7-carboxamide] |
| 190 to 191 °C | 40.6 µM | 26.6 µM | 34.1 µM | COc1cc(-c2[nH]c3c(C(N)=O)cnn3c2NC(C)(C)CC(C)(C)C)ccc1OC(C)=O [Example 8, 4-(7-Carbamoyl-3-((2,4,4-trimethylpentan-2-yl)amino)-1H-imidazo[1,2-b]pyrazol-2-yl)-2-methoxyphenyl acetate] |
| 226 to 227 °C | – | – | – | COC(=O)CNc1c(-c2c(OC)cc(OC)cc2OC)[nH]c2c(C(N)=O)cnn12 [Example 9, Methyl 2-((7-carbamoyl-2-(2,4,6-trimethoxyphenyl)-1H-imidazo[1,2-b]pyrazol-3-yl)amino)acetate] |
| 229 to 230 °C | > 50 µM | 17.5 µM | > 50 µM | CC(C)(C)CC(C)(C)Nc1c(-c2ccc(F)cc2)[nH]c2c(C(N)=O)cnn12 [Example 10, 2-(4-Fluorophenyl)-3-((2,4,4-trimethylpentan-2-yl)amino)-1H-imidazo[1,2-b]pyrazole-7-carboxamide] |
| 229 to 230 °C | > 50 µM | 15.9 µM | > 50 µM | COC(=O)CNc1c(-c2ccc(F)cc2)[nH]c2c(C(N)=O)cnn12 [Example 11, Methyl 2-((7-carbamoyl-2-(4-fluorophenyl)-1H-imidazo[1,2-b]pyrazol-3-yl)amino)acetate] |
| 192 to 193 °C | 12.7 µM | 13.2 µM | 20.9 µM | CC(C)(C)CC(C)(C)Nc1c(-c2ccc(C(F)(F)F)cc2)[nH]c2c(C(N)=O)cnn12 [Example 12, 2-(4-(Trifluoromethyl)phenyl)-3-((2,4,4-trimethylpentan-2-yl)amino)-1H-imidazo[1,2-b]pyrazole-7-carboxamide] |
| 256 to 258 °C | – | – | – | CC(C)(C)Nc1c(-c2ccc(F)c(F)c2)[nH]c2c(C(N)=O)cnn12 [Example 13, 3-(Tert-butylamino)-2-(3,4-difluorophenyl)-1H-imidazo[1,2-b]pyrazole-7-carboxamide] |
| 226 to 228 °C | – | – | – | CC(C)(C)CC(C)(C)Nc1c(-c2cccnc2)[nH]c2c(C(N)=O)cnn12 [Example 14, 2-(Pyridin-3-yl)-3-((2,4,4-trimethylpentan-2-yl)amino)-1H-imidazo[1,2-b]pyrazole-7-carboxamide] |
| 190 to 191 °C | > 50 µM | 29.2 µM | > 50 µM | C/C(=C\c1ccccc1)c1[nH]c2c(C(N)=O)cnn2c1NC(C)(C)C [Example 15, (E)-3-(Tert-butylamino)-2-(1-phenylprop-1-en-2-yl)-1H-imidazo[1,2-b]pyrazole-7-carbox-amide] |
| 190 to 192 °C | 11.1 µM | 9.35 µM | 12.3 µM | CC(C)(C)CC(C)(C)Nc1c(C2CCCCC2)[nH]c2c(C(N)=O)cnn12 [Example 16, 2-Cyclohexyl-3-((2,4,4-trimethylpentan-2-yl)amino)-1H-imidazo[1,2-b]pyrazole-7-carbox-amide] |
| 203 to 204 °C | – | – | – | CCCCCCCc1[nH]c2c(C(N)=O)cnn2c1NC(C)(C)C [Example 17, 3-(Tert-butylamino)-2-heptyl-1H-imidazo[1,2-b]pyrazole-7-carboxamide] |
| 177 to 178 °C | – | – | – | CC(C)(C)CC(C)(C)Nc1c(C(C)(C)C)[nH]c2c(C(=O)NC(C)(C)C)cnn12 [Example 30, N,2-Di-tert-butyl-3-((2,4,4-trimethylpentan-2-yl)amino)-1H-imidazo[1,2-b]pyrazole-7-carboxamide] |
| 182 to 183 °C | – | – | – | CC(C)(C)CC(C)(C)Nc1c(C(C)(C)C)[nH]c2c(C(=O)NC3CCCC3)cnn12 [Example 32, 2-(Tert-butyl)-N-cyclopentyl-3-((2,4,4-trimethylpentan-2-yl)amino)-1H-imidazo[1,2-b]pyrazole-7-carboxamide] |
| 180 to 181 °C | – | – | – | Cc1cc(C)cc(NC(=O)c2cnn3c(NC(C)(C)CC(C)(C)C)c(C(C)(C)C)[nH]c23)c1 [Example 41, 2-(Tert-butyl)-N-(3,5-dimethylphenyl)-3-((2,4,4-trimethylpentan-2-yl)amino)-1H-imidazo[1,2-b]pyrazole-7-carboxamide] |
| 155 to 156 °C | – | – | – | CC(C)c1ccc(NC(=O)c2cnn3c(NC(C)(C)CC(C)(C)C)c(C(C)(C)C)[nH]c23)cc1 [Example 42, 2-(Tert-butyl)-N-(4-isopropylphenyl)-3-((2,4,4-trimethylpentan-2-yl)amino)-1H-imidazo[1,2-b]pyrazole-7-carboxamide] |
| 127 °C | – | – | – | COc1ccc(NC(=O)c2cnn3c(NC(C)(C)CC(C)(C)C)c(C(C)(C)C)[nH]c23)c(OC)c1 [Example 44, 2-(Tert-butyl)-N-(2,4-dimethoxyphenyl)-3-((2,4,4-trimethylpentan-2-yl)amino)-1H-imidazo[1,2-b]pyrazole-7-carboxamide] |
| 106 °C | – | – | – | CC(C)(C)CC(C)(C)Nc1c(C(C)(C)C)[nH]c2c(C(=O)Nc3ccccc3C(F)(F)F)cnn12 [Example 45, 2-(Tert-butyl)-N-(2-(trifluoromethyl)phenyl)-3-((2,4,4-trimethylpentan-2-yl)amino)-1H-imidazo[1,2-b]pyrazole-7-carboxamide] |
| – | 29.3 µM | 3.05 µM | 30.7 µM | CC(C)(C)CC(C)(C)Nc1c(C(C)(C)C)[nH]c2c(C(=O)Nc3ccc(Cl)cc3)cnn12 [Example 51, 2-(Tert-butyl)-N-(4-chlorophenyl)-3-((2,4,4-trimethylpentan-2-yl)amino)-1H-imidazo[1,2-b]pyrazole-7-carboxamide] |
| 163 to 164 °C | – | – | – | CC(C)(C)CC(C)(C)Nc1c(C(C)(C)C)[nH]c2c(C(=O)NCc3ccc(F)cc3)cnn12 [Example 71, 2-(Tert-butyl)-N-(4-fluorobenzyl)-3-((2,4,4-trimethylpentan-2-yl)amino)-1H-imidazo[1,2-b]pyrazole-7-carboxamide] |
| 140 °C | – | – | – | CC(C)(C)CC(C)(C)Nc1c(C(C)(C)C)[nH]c2c(C(=O)Nc3ccc(F)cn3)cnn12 [Example 72, 2-(Tert-butyl)-N-(5-fluoropyridin-2-yl)-3-((2,4,4-trimethylpentan-2-yl)amino)-1H-imidazo[1,2-b]pyrazole-7-carboxamide] |
| 177 to 178 °C | – | – | – | CC(C)(C)CC(C)(C)Nc1c(C(C)(C)C)[nH]c2c(C(=O)Nc3ccc(F)nc3)cnn12 [Example 73, 2-(Tert-butyl)-N-(6-fluoropyridin-3-yl)-3-((2,4,4-trimethylpentan-2-yl)amino)-1H-imidazo[1,2-b]pyrazole-7-carboxamide] |
| 179 °C | – | – | – | Cc1nn2c(NC(C)(C)CC(C)(C)C)c(C(C)(C)C)[nH]c2c1C(=O)Nc1ccc(F)cc1 [Example 74, 2-(Tert-butyl)-N-(4-fluorophenyl)-6-methyl-3-((2,4,4-trimethylpentan-2-yl)amino)-1H-imidazo[1,2-b]pyrazole-7-carboxamide] |
